Laboratory results from patent publication US9783510B2, “Small molecule mediated transcriptional induction of E-cadherin” (Vanderbilt University, priority 2014, dated 2017).

The compounds below were run on E-cadherin expression in SW620 cells (assay: E-cadherin expression, in-cell Western (ICW), SW620 cells). Conditions: Homo sapiens, SW-620, 24 h, change in expression level of E-cadherin in response to 10 μM compound, 24 hours, SW620 cells.
Type: cell-based
Procedure: SW620 and H520 cells (5×10^4/100 μL) were seeded in a 96-well plate prior to treatment. Cells were treated with 10 μM concentration of synthesized compound in quadruplicate for 24 hours in RPMI 1640 supplemented medium and 100 μg/mL penicillin-streptomycin. The cells were then fixed with 100% methanol for 20 minutes at 4° C. The wells were then washed 2 times with PBS, permeabilized in 2% bovine serum albumin (BSA) and 0.2% TritonX-100 in PBS for 30 minutes at room temperature with gentle agitation, and blocked in LI-COR blocking buffer for 30 minutes at room temperature with gentle agitation. The cells were then incubated with the following primary antibodies: anti-E-Cadherin (1:500) and anti-α-Tubulin (1:1000) diluted in blocking buffer (1:1 dilution in PBS) for 2 hours at room temperature with gentle agitation. The cells were washed 4 times in PBS-T for 5 minutes each, and then incubated with the following secondary antibodies conjugated to a fluorescent entity: IRDye 800-conjugated goat anti-rabbit IgG (1:1000) and IRDye-700-conjugated goat anti-mouse IgG (1:2000) in blocking buffer (1:1 dilution in PBS) with gentle agitation for 1 h at room temperature. The cells were washed 4 times in PBS-T for 5 minutes each followed by a single wash with PBS. All liquid was removed from the wells and the plates were visualized and analyzed on the Odyssey IR imaging system (LI-COR Biosciences).
The assay was further optimized in the following manner. The cells were washed 2 times with PBS, fixed in 100% methanol at room temperature for 15 minutes, and again washed 2 times with PBS. The cells were then incubated with the following primary antibodies: anti-E-Cadherin (1:200) and anti-α-Tubulin (1:2000) diluted in ice cold 2% bovine serum albumin (BSA) and 0.2% TritonX-100 in PBS for 1 hour at room temperature with gentle agitation. The cells were washed 2 times in PBS and then incubated with the following secondary antibodies conjugated to a fluorescent entity: Licor 800-conjugated goat anti-rabbit IgG (1:2000) and IRDye-700-conjugated goat anti-mouse IgG (1:2000) in ice cold 2% BSA and 0.2% TritonX-100 in PBS with gentle agitation for 45 minutes at room temperature. The wells were washed 2 times in PBS, dried, and analyzed as previously mentioned.
N-Acetamidoalkyl-5-arylisoxazole-3-carboxamide analogs were synthesized as described above. Changes in expression level of E-cadherin in response to 10 μM compound in SW620 cells was determined in a cell-based functional assay as described above, and the data are shown in Table III. The compound number corresponds to the compound numbers used in Table II.
EC50 of inducement of E-cadherin expression in SW620 cells was determined in a cell-based functional assay as described above, and the data are shown in Table V. The compound number corresponds to the compound numbers used in Table IV.
For `O=C(NCCCNC(=O)c1cc(-c2ccccc2)on1)c1cc(-c2ccccc2)ccn1` [Compound 119, 5-phenyl-N-(3-(4-phenylpicolinamido)propyl)isoxazole-3-carboxamide], the fold induction at 10 µM was 4.13.
`Cc1cccnc1C(=O)NCCCNC(=O)c1cc(-c2cccs2)on1` [Compound 55, N-(3-(3-methylpicolinamido)propyl)-5-(thiophen-2-yl)isoxazole-3-carboxamide] was tested, and the fold induction at 10 µM was 2.98.
Work on `N[C@@H](Cc1c[nH]c2ccccc12)C(=O)NCCCNC(=O)c1cc(-c2ccccc2)on1` [Compound 32, (S)—N-(3-(2-amino-3-(1H-indol-3-yl)propanamido)propyl)-5-phenylisoxazole-3-carboxamide] yielded a fold induction at 10 µM of 2.7.
Compound `O=C(NCCCNC(=O)c1cccc(C(F)(F)F)n1)c1cc(-c2cccs2)on1` [Compound 107, 5-(thiophen-2-yl)-N-(3-(6-(trifluoromethyl)picolinamido)propyl)isoxazole-3-carboxamide] has a fold induction at 10 µM of 4.15.
In the case of `N[C@@H](Cc1ccccc1)C(=O)NCCNC(=O)c1cc(-c2ccccc2)on1` [Compound 23, (S)—N-(2-(2-amino-3-phenylpropanamido)ethyl)-5-phenylisoxazole-3-carboxamide], the fold induction at 10 µM is reported as 0.84.
In the case of `Nc1cccc(C(=O)NCCCNC(=O)c2cc(-c3ccccc3)on2)c1` [Compound 15, N-(3-(3-aminobenzamido)propyl)-5-phenylisoxazole-3-carboxamide], the fold induction at 10 µM is reported as 3.94.
In the case of `Cc1noc(C(=O)NCCCNC(=O)c2cc(-c3cccs3)on2)n1` [Compound 78, 3-methyl-N-(3-(5-(thiophen-2-yl)isoxazole-3-carboxamido)propyl)-1,2,4-oxadiazole-5-carboxamide], the fold induction at 10 µM is reported as 1.97.
In the case of `O=C(NCCCNC(=O)C1CCCCO1)c1cc(-c2ccccc2)on1` (stereo not shown) [Compound 121, 5-phenyl-N-(3-(tetrahydro-2H-pyran-2-carboxamido)propyl)isoxazole-3-carboxamide], the fold induction at 10 µM is reported as 3.74.
`O=C(NCCCNC(=O)c1cc(-c2ccccc2)on1)c1ccc(O)cn1` [Compound 58, N-(3-(5-hydroxypicolinamido)propyl)-5-phenylisoxazole-3-carboxamide] gave a fold induction at 10 µM of 3.57.
`O=C(CCCC[C@@H]1SC[C@@H]2NC(=O)N[C@@H]21)Nc1ccc(C(=O)NCCCNC(=O)c2cc(-c3ccccc3)on2)cc1` [Compound 17, N-(3-(4-(5-((3aS,4S,6aR)-2-oxohexahydro-1H-thieno[3,4-d]imidazol-4-yl)pentanamido)benzamido)propyl)-5-phenylisoxazole-3-carboxamide] showed a fold induction at 10 µM of 1.04.
Compound `N#Cc1ccnc(C(=O)NCCCNC(=O)c2cc(-c3cccs3)on2)c1` [Compound 82, N-(3-(4-cyanopicolinamido)propyl)-5-(thiophen-2-yl)isoxazole-3-carboxamide] has a fold induction at 10 µM of 2.8.
In the case of `O=C(NCCCNC(=O)c1cc(-c2cccs2)on1)c1ccc(O)nc1` [Compound 49, N-(3-(6-hydroxynicotinamido)propyl)-5-(thiophen-2-yl)isoxazole-3-carboxamide], the fold induction at 10 µM is reported as 1.71.
For `O=C(NCCCNC(=O)c1ccc(Br)o1)c1cc(-c2cccs2)on1` [Compound 74, N-(3-(5-bromofuran-2-carboxamido)propyl)-5-(thiophen-2-yl)isoxazole-3-carboxamide], the fold induction at 10 µM was 3.06.
For `Cc1ccc(C(=O)NCCCNC(=O)c2cc(-c3ccccc3)on2)o1` [Compound 38, N-(3-(5-methylfuran-2-carboxamido)propyl)-5-phenylisoxazole-3-carboxamide], the fold induction at 10 µM was 3.37.
Compound `COc1ccc(C(=O)NCCCNC(=O)c2cc(-c3cccs3)on2)c(OC)n1` [Compound 43, N-(3-(2,6-dimethoxynicotinamido)propyl)-5-(thiophen-2-yl)isoxazole-3-carboxamide] has a fold induction at 10 µM of 1.45.
Work on `Cc1cccnc1C(=O)NCCCNC(=O)c1cc(-c2ccccc2)on1` [Compound 71, N-(3-(3-methylpicolinamido)propyl)-5-phenylisoxazole-3-carboxamide] yielded a fold induction at 10 µM of 3.61.
For `CCOc1ncccc1C(=O)NCCCNC(=O)c1cc(-c2cccs2)on1` [Compound 53, N-(3-(2-ethoxynicotinamido)propyl)-5-(thiophen-2-yl)isoxazole-3-carboxamide], the fold induction at 10 µM was 3.52.
For `O=C(NCCCNC(=O)c1cc(-c2ccccc2)on1)c1ccncc1` [Compound 31, N-(3-(isonicotinamido)propyl)-5-phenylisoxazole-3-carboxamide], the fold induction at 10 µM was 3.51.
`O=C(NCCCNC(=O)c1cccc(C(F)(F)F)n1)c1cc(-c2ccccc2)on1` [Compound 120, 5-phenyl-N-(3-(6-(trifluoromethyl)picolinamido)propyl)isoxazole-3-carboxamide] gave a fold induction at 10 µM of 3.08.
`O=C(NCCCNC(=O)c1ncccc1F)c1cc(-c2cccs2)on1` [Compound 44, N-(3-(3-fluoropicolinamido)propyl)-5-(thiophen-2-yl)isoxazole-3-carboxamide] showed a fold induction at 10 µM of 3.36.
`O=C(NCCCNC(=O)c1ccc2ccccc2n1)c1cc(-c2ccccc2)on1` [Compound 86, 5-phenyl-N-(3-(quinoline-2-carboxamido)propyl)isoxazole-3-carboxamide] showed a fold induction at 10 µM of 3.48.
Work on `Nc1ccc(C(=O)NCCCNC(=O)c2cc(-c3cccs3)on2)cn1` [Compound 79, N-(3-(6-aminonicotinamido)propyl)-5-(thiophen-2-yl)isoxazole-3-carboxamide] yielded a fold induction at 10 µM of 3.58.
In the case of `O=C(NCCNC(=O)c1cc(-c2ccccc2)on1)c1ccc(O)c(O)c1` [Compound 9, N-(2-(3,4-dihydroxybenzamido)ethyl)-5-phenylisoxazole-3-carboxamide], the fold induction at 10 µM is reported as 1.89.
In the case of `O=C(NCCCNC(=O)c1ccncc1O)c1cc(-c2ccccc2)on1` [Compound 59, N-(3-(3-hydroxyisonicotinamido)propyl)-5-phenylisoxazole-3-carboxamide], the fold induction at 10 µM is reported as 1.26.
`O=C(NCCCNC(=O)c1ncco1)c1cc(-c2ccccc2)on1` [Compound 34, N-(3-(oxazole-2-carboxamido)propyl)-5-phenylisoxazole-3-carboxamide] was tested, and the fold induction at 10 µM was 2.77.
With `O=C(NCCNC(=O)c1cc(-c2ccccc2)on1)c1cccc(O)c1` [Compound 8, N-(2-(3-hydroxybenzamido)ethyl)-5-phenylisoxazole-3-carboxamide] the fold induction at 10 µM was 2.44.
With `O=C(NCCCNC(=O)c1ccc(C(F)(F)F)o1)c1cc(-c2ccccc2)on1` [Compound 89, 5-phenyl-N-(3-(5-(trifluoromethyl)furan-2-carboxamido)propyl)isoxazole-3-carboxamide] the fold induction at 10 µM was 2.13.
`COC(=O)c1ccc(C(=O)NCCCNC(=O)c2cc(-c3cccs3)on2)nc1` [Compound 48, methyl 6-((3-(5-(thiophen-2-yl)isoxazole-3-carboxamido)propyl)carbamoyl)nicotinate] was tested, and the fold induction at 10 µM was 1.48.
Work on `O=C(Cc1c[nH]c2ccccc12)NCCCNC(=O)c1cc(-c2ccccc2)on1` [Compound 95, N-(3-(2-(1H-indol-3-yl)acetamido)propyl)-5-phenylisoxazole-3-carboxamide] yielded a fold induction at 10 µM of 4.2.
`COC(=O)c1ccc(C(=O)NCCCNC(=O)c2cc(-c3ccccc3)on2)nc1` [Compound 66, methyl 6-((3-(5-phenylisoxazole-3-carboxamido)propyl)carbamoyl)nicotinate] gave a fold induction at 10 µM of 1.55.
Work on `CCc1ccc(C(=O)NCCCNC(=O)c2cc(-c3cccs3)on2)o1` [Compound 101, N-(3-(5-ethylfuran-2-carboxamido)propyl)-5-(thiophen-2-yl)isoxazole-3-carboxamide] yielded a fold induction at 10 µM of 4.24.
`O=C(NCCCNC(=O)c1ccno1)c1cc(-c2cccs2)on1` [Compound 102, N-(3-(isoxazole-5-carboxamido)propyl)-5-(thiophen-2-yl)isoxazole-3-carboxamide] gave a fold induction at 10 µM of 2.87.
`Cc1ccc(C(=O)NCCCNC(=O)c2cc(-c3cccs3)on2)o1` [Compound 77, N-(3-(5-methylfuran-2-carboxamido)propyl)-5-(thiophen-2-yl)isoxazole-3-carboxamide] was tested, and the fold induction at 10 µM was 2.99.

Same assay, conditions: Homo sapiens, SW-620; inducement of E-cadherin expression in SW620 cells
With `O=C(NCCCNC(=O)c1cc(-c2ccccc2)on1)c1cc(-c2ccccc2)ccn1` [Compound 119, 5-phenyl-N-(3-(4-phenylpicolinamido)propyl)isoxazole-3-carboxamide] the EC50 was 5.64 µM.
For `O=C(NCCCNC(=O)c1cccc(C(F)(F)F)n1)c1cc(-c2cccs2)on1` [Compound 107, 5-(thiophen-2-yl)-N-(3-(6-(trifluoromethyl)picolinamido)propyl)isoxazole-3-carboxamide], the EC50 was 6.95 µM.
For `O=C(Cc1c[nH]c2ccccc12)NCCCNC(=O)c1cc(-c2ccccc2)on1` [Compound 95, N-(3-(2-(1H-indol-3-yl)acetamido)propyl)-5-phenylisoxazole-3-carboxamide], the EC50 was 2.57 µM.
Compound `CCc1ccc(C(=O)NCCCNC(=O)c2cc(-c3cccs3)on2)o1` [Compound 101, N-(3-(5-ethylfuran-2-carboxamido)propyl)-5-(thiophen-2-yl)isoxazole-3-carboxamide] has an EC50 of 4.12 µM.
